{"source": "patent US11883526B2", "about": "(priority 2019, dated 2024)", "test_system": "patients with treatment-resistant depression (TRD)", "assay": "MADRS total score, response, remission (phase 2 dose-response study, Example 7)", "type": "in vivo, human", "details": "for MADRS total score, LS mean difference vs placebo (all dose groups): 28, 56, 84 mg; for Remitters, % / Responders, %: study period endpoint", "protocol": "Efficacy was assessed with the Montgomery-Asberg Depression Rating Scale (MADRS; Montgomery, “A new depression scale designed to be sensitive to change”, Br. J. Psychiatry, 1979, 134:382-389; Williams, “Development and reliability of a structured interview guide for the Montgomery Asberg Depression Rating Scale (SIGMA)”, Br. J. Psychiatry, 2008, 192(1):52-58) on days 1 (pre-dose and 2 hour post-dose), 2, 8 (pre-dose), 9, and 15, using the structured interview guide (SIGMA). See, Williams 2008.\nEfficacy data were analyzed in intent-to-treat (ITT) analysis sets for each period and phase. The ITT analysis sets included all participants who received at least 1 dose of study medication during that period or phase and had baseline and at least one post-baseline MADRS total score within that period or phase.\nThe primary efficacy endpoint—change from baseline (pre-dose, day 1 in each period) to endpoint (day 8 in each period) in MADRS total score—was analyzed using the analysis of covariance (ANCOVA) model. For Period 1, the model included treatment and country as factors, and baseline MADRS total score as covariate. For Period 2, the model included treatment and country as factors, Period 2 baseline QIDS-SR16 score (moderate or severe), and Period 2 baseline MADRS total score as a continuous covariate.\nGiven the consistency between Periods 1 and 2 results (Chi 2016), esketamine dose groups were compared to placebo using a combined test on the weighted test statistics for each period in the double-blind treatment phase. A dose-response analysis on primary efficacy endpoint was performed using data combined from both periods. The Multiple Comparison Procedure-Modelling (MCP-Mod) methodology was performed (Williams 2008; Bretz, “Combining multiple comparisons and modeling techniques in dose-response studies”, Biometrics, 2005, 61:738-748)."}
{"smiles": "CN[C@]1(c2ccccc2Cl)CCCCC1=O", "note": "[esketamine, (S)-2-(2-chlorophenyl)-2-(methylamino)cyclohexanone]", "values": [{"measurement": "proportion of responders (≥50% improvement in MADRS)", "setting": "84 mg, Period 2 endpoint", "result": 50.0, "unit": "%"}, {"measurement": "MADRS total score, LS mean difference vs placebo (all dose groups)", "setting": "Period 1, baseline to day 8", "result": "−5.0 to −10.5"}, {"measurement": "Remitters, %", "setting": "Period 1, 84 mg", "result": "(25.0) %"}, {"measurement": "Responders, %", "setting": "Period 1, 84 mg", "result": "(41.7) %"}, {"measurement": "MADRS total score, LS mean difference vs placebo (all dose groups)", "setting": "Period 2, day 8 to day 15", "result": "−3.1 to −6.9"}, {"measurement": "MADRS total score, LS mean change", "setting": "Period 2, change at study period endpoint, 56 mg", "result": "−8.9"}, {"measurement": "Remitters, %", "setting": "Period 2, 28 mg", "result": "(12.5) %"}, {"measurement": "Responders, %", "setting": "Period 2, 28 mg", "result": "(12.5) %"}, {"measurement": "Remitters, %", "setting": "Period 2, 84 mg", "result": "(20.0) %"}]}
